# Test results from patent US4294833A, “Substituted 4-hydroxy-isophthalic acid picolylamides having a pharmaceutical activity in thromboembolic disorders” (Societa Italo-Britannica, priority 1977, dated 1981).
# Legend:
# [1] = tested on: blood coagulum; assay: Fibrinolytic activity, Fearnley method (lysis of blood coagulum in toto); assay type: in vivo; conditions: percent decrease of coagulum weight after 30 minutes at 37° C., 25 mg/kg intraperitoneal, rabbits; for fibrinolytic activity (percent decrease of coagulum weight) at 25 mg/kg: Oryctolagus cuniculus, ip, 0.5 h, read-out: fibrinolytic activity (FL)
# In short: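 Rabbits received compounds at 25 mg/kg i.p., and 0.2 ml ear-vein blood was drawn before and after dosing. Blood was mixed with pH 7.4 phosphate buffer and thrombin (50 NIH units/ml solution), held 30 min on ice, then 30 min at 37 °C. Activity is the percent decrease in clot weight.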
# [2] = tested on: platelet aggregation induced by ADP; assay: Platelet aggregation inhibitory activity in vivo (Born aggregometer), ADP-induced; set-up: species or system New Zealand rabbits; conditions: dose for 50% inhibition of ADP-induced aggregation curve, rabbits, intraperitoneal, blood 2, 4 and 6 hours after injection; for ED50: Oryctolagus cuniculus, Platelet, ip, read-out: platelet antiaggregant activity (AAP), DI50, ADP
# In short: (§1)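 Fasted New Zealand rabbits under Nembutal anaesthesia (35 mg/kg i.m.) received compound intraperitoneally. Carotid blood was taken before and 2, 4 and 6 h after dosing and citrated to prepare PRP for ADP- or thrombin-induced Born aggregometry. DI50 (mg/kg) is the dose halving the aggregation curve relative to the same animal's pre-dose plasma.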
# [3] = tested on: platelet aggregation induced by thrombin; assay: Platelet aggregation inhibitory activity in vivo (Born aggregometer), thrombin-induced; set-up: species or system New Zealand rabbits; conditions: dose for 50% inhibition of thrombin-induced aggregation curve, rabbits, intraperitoneal, blood 2, 4 and 6 hours after injection; for ED50: Oryctolagus cuniculus, Platelet, ip, read-out: platelet antiaggregant activity (AAP), DI50, Thrombin
# In short: as §1
# [4] = tested on: male Swiss mice; assay: Acute toxicity, intraperitoneal; set-up: acute toxicity (LD50 / DL50): unit: mg/kg; conditions: mouse, in vivo
# In short: (§2)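 Male Swiss mice (20±2 g), fasted 18 h with water ad libitum, were dosed intraperitoneally and observed for 7 days for symptoms and deaths. Preliminary LD50 (mg/kg) was obtained by graphic interpolation.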
# [5] = Acute toxicity, intraperitoneal; set-up: acute toxicity (LD50 / DL50): unit: mg/kg; conditions: mouse, in vivo, ip, male Swiss mice, intraperitoneal, 7 days observation; preliminary, by graphic interpolation; read-out: acute toxicity (LD50 / DL50)
# In short: as §2
# [6] = tested on: thrombin-induced coagulation of platelet rich plasma; assay: Antithrombin activity on PRP, Hartert's thromboelastograph; assay type: in vivo, New Zealand rabbits; conditions: percent decrease of index ma/[r+k] vs before treatment, 20 mg/kg intraperitoneal, rabbits; for inhibition in vivo at 20 mg/kg: Oryctolagus cuniculus, Platelet, ip
# In short: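 Compounds were given intraperitoneally at 20 mg/kg, and coagulation of platelet rich plasma was then induced with thrombin (60 units, pH 7.4) and recorded on a Hartert thromboelastograph. Activity is the percent decrease of the ma/(r+k) index relative to the pre-treatment value.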
# [7] = tested on: CaCl2-induced plasma coagulation; assay: Anticoagulant activity on PRP, Hartert's thromboelastograph; assay type: in vivo, New Zealand rabbits; conditions: percent increase of total time for coagulum formation (r+k) vs before treatment, 25 mg/kg intraperitoneal, rabbits; for change in vivo at 25 mg/kg: Oryctolagus cuniculus, ip, read-out: anticoagulant activity (AC)
# In short: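 Animals dosed at 25 mg/kg i.p.; PRP coagulation induced with 1.29% CaCl2 and followed by Hartert thromboelastography. Activity given as percent increase in r+k (total coagulum formation time) after treatment versus pre-treatment value.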
SMILES,fibrinolytic activity (percent decrease of coagulum weight) at 25 mg/kg [1] [%],ED50 [2] [mg/kg],ED50 [3] [mg/kg],acute toxicity (in words) [4],LD50 at 168 h [5] [mg/kg],inhibition in vivo at 20 mg/kg [6] [%],change in vivo at 25 mg/kg [7] [%],fibrinolytic activity (FL) ([1]; 25 mg/kg),"platelet antiaggregant activity (AAP), DI50, ADP [2]","platelet antiaggregant activity (AAP), DI50, Thrombin [3]","acute toxicity (LD50 / DL50) ([4]; ip, 10080 min)",antithrombin activity (AT) ([6]; 20 mg/kg),anticoagulant activity (AC) ([7]; 25 mg/kg)
CCCOc1ccc(C(=O)NCc2cccnc2)cc1C(=O)NCc1cccnc1 [Example 1],32.4,27.5,19.3,"the acute toxicity increases with an increasing number of carbon atoms in the substituent R""",600,38.6,21.5,,,,,,
CCCCCCOc1ccc(C(=O)NCc2cccnc2)cc1C(=O)NCc1cccnc1 [Example 4],41.3,22.9,17.3,"the acute toxicity increases with an increasing number of carbon atoms in the substituent R""",175,47.6,19.5,,,,,,
CCCCCOc1ccc(C(=O)NCc2cccnc2)cc1C(=O)NCc1cccnc1 [Example 3],36.2,25.3,17.5,"the acute toxicity increases with an increasing number of carbon atoms in the substituent R""",380,43,27.4,,,,,,
CCCCOc1ccc(C(=O)NCc2cccnc2)cc1C(=O)NCc1cccnc1 [Example 2],35.7,26.7,18.2,"the acute toxicity increases with an increasing number of carbon atoms in the substituent R""",573,40.1,23.2,,,,,,
CCCCCCCCOc1ccc(C(=O)NCc2cccnc2)cc1C(=O)NCc1cccnc1 [Example 6],36.4,25.9,19.4,"the acute toxicity increases with an increasing number of carbon atoms in the substituent R""",187,45.4,16.9,,,,,,
CCC(C)(C)Oc1c(Cl)cc(C(=O)NCc2cccnc2)cc1C(=O)NCc1cccnc1 [Example 38],,,,,,,,"19,3%","54,3 mg/kg","34,6 mg/kg",322,"22,0%","12,9%"
CCCCOc1c(Cl)cc(C(=O)NCc2cccnc2)cc1C(=O)NCc1cccnc1 [Example 26],28.4,43.7,30.2,,205,33.5,22.2,,,,,,
COc1cc(C(=O)NCc2cccnc2)cc(C(=O)NCc2cccnc2)c1OCC(C)(C)C [Example 37],21.9,44.6,32,,378,25.5,14.2,,,,,,
COc1c(Cl)cc(C(=O)NCc2ccncc2)cc1C(=O)NCc1ccncc1 [Example 66],20.2,67.2,42.5,,437,25,13.6,,,,,,
COc1ccc(C(=O)NCc2ccncc2)cc1C(=O)NCc1ccncc1 [Example 58],31.7,28.1,21.3,,704,37,18.2,,,,,,
CC=CCOc1ccc(C(=O)N(C)Cc2cccnc2)cc1C(=O)N(C)Cc1cccnc1 [Example 53],40.5,27.5,19.6,,215,47.9,15.1,,,,,,
CC=COc1c(Cl)cc(C(=O)N(Cc2cccnc2)C(CC)CC)cc1C(=O)N(Cc1cccnc1)C(CC)CC [Example 50],24.6,52.2,33.8,,198,27.6,13.8,,,,,,
C=C(C)COc1ccc(C(=O)N(Cc2cccnc2)C(C)C)cc1C(=O)N(Cc1cccnc1)C(C)C [Example 56],38.1,29.1,21.4,,352,47.3,18.6,,,,,,
CC=COc1c(Cl)cc(C(=O)N(CCCCC)Cc2cccnc2)cc1C(=O)N(CCCCC)Cc1cccnc1 [Example 51],26.1,51.6,32.4,,205,28.2,15.7,,,,,,
CCCOc1ccc(C(=O)NCc2ccncc2)cc1C(=O)NCc1ccncc1 [Example 59],32.8,25.2,18.1,,623,39.1,20.6,,,,,,
CCC(CC)Oc1c(Cl)cc(C(=O)NCc2cccnc2)cc1C(=O)NCc1cccnc1 [Example 30],25.8,42.2,29.5,,198,27.9,22.3,,,,,,
C=CCOc1c(OC)cc(C(=O)NCc2cccnc2)cc1C(=O)NCc1cccnc1 [Example 17],23,51.7,32.6,,298,36,14.1,,,,,,
C=CC(C)Oc1ccc(C(=O)NCc2cccnc2)cc1C(=O)NCc1cccnc1 (stereo not drawn) [Example 54],35.2,32.3,21.2,,355,46.3,18.7,,,,,,
COc1ccc(C(=O)N(C)Cc2cccnc2)cc1C(=O)N(C)Cc1cccnc1 [Example 39],19.2,59.8,42,,610,26.6,12.5,,,,,,
CCCN(Cc1cccnc1)C(=O)c1ccc(OC)c(C(=O)N(CCC)Cc2cccnc2)c1 [Example 41],22.3,65.1,46.5,,620,26.3,15.8,,,,,,
C=CCCOc1ccc(C(=O)NCc2cccnc2)cc1C(=O)NCc1cccnc1 [Example 8],42.1,35.5,25.7,,362,50.6,14.2,,,,,,
CCCCCCCOc1ccc(C(=O)NCc2cccnc2)cc1C(=O)NCc1cccnc1 [Example 5],38.8,24.6,18.1,"the acute toxicity increases with an increasing number of carbon atoms in the substituent R""",181,46.5,18,,,,,,
C#CCOc1ccc(C(=O)NCc2cccnc2)cc1C(=O)NCc1cccnc1 [Example 22],29.2,36.5,24.4,,382,33.1,13.6,,,,,,
